# Tests used:
# Assay type in all cases: in vivo, human
# [1] = tested on: radically unresectable advanced or recurrent colonic/rectal cancer; experiment: Open-label, uncontrolled study: Compound A, Nivolumab and XELOX plus Bevacizumab therapy as primary treatment; conditions: Compound A 20 mg or 40 mg orally once a day + Nivolumab 360 mg IV at 3-week intervals + XELOX plus Bevacizumab therapy; RECIST Guideline 1.1; 10 months after the first patient was registered
# Description: The purpose of this study is to examine the tolerability, safety, and efficacy of a combination of Compound A, Nivolumab, and XELOX plus Bevacizumab therapy as a primary treatment in patients with radically unresectable advanced or recurrent colonic/rectal cancer. This trial can evaluate the effect of the combination of Compound A, Nivolumab, and a XELOX plus Bevacizumab therapy.
# Patients with radically unresectable advanced or recurrent colonic/rectal cancer.
# At the time of registration, patients were selected, who had not been treated with a systemic antineoplastic agent for radically unresectable advanced or recurrent colonic/rectal cancer and who met all pre-determined patient selection criteria determined in view of the patient selection criteria in each trial performed so far for Compound A, Nivolumab and XELOX plus Bevacizumab therapy. When it became clear from the registration that the criteria were not satisfied before the first administration of the investigational new drug, the administration of the investigational new drug was not started and the study was discontinued. […]
# A principal investigator or a sub-investigator measured a tumor diameter of a target lesion according to RECIST Guideline 1.1 to determine the antitumor effect. […]
# [2] = tested on: curatively resectable locally advanced rectal cancer; experiment: Open-label, uncontrolled study: Compound A or Compound A plus Nivolumab as preoperative adjuvant therapy after preoperative chemoradiotherapy; conditions: Compound A 40 mg QD oral alone then with Nivolumab 240 mg Q2W IV (cohort 1) or in combination (cohort 2), after preoperative CRT; pCR = AJCC Tumor regression grade 0 (ypT0N0); 10 months after registration of the first patient
# Description: The purpose of this study was to examine the efficacy, pharmacokinetics and safety of Compound A administered alone and/or Compound A and Nivolumab administered in combination as a preoperative adjuvant therapy after a preoperative chemoradiotherapy (CRT) for curatively resectable locally advanced rectal cancer. The trial could evaluate the effect of Compound A and/or a combination of Compound A and Nivolumab as a preoperative adjuvant therapy.
# Curatively Resectable Locally Advanced Rectal Cancer
# As the preoperative CRT, the investigational new drug was administered to a patient who was treated and satisfied the following conditions. • 45 Gy/25 times of irradiation to the pelvic cavity and 5.4 Gy/3 times of boost irradiation to the primary lesion were performed. • the administration of Capecitabine was started at a dose of 1,650 mg/m^2 (825 mg/m^2 twice a day) per day. The starting dose was determined based on Method D of dosage and administration of Xeloda (registered trademark) tablet 300. • The oral administration of Capecitabine was performed in a period corresponding to 75% of 28 times which was the number of times of irradiation of radioactive ray in combination with the irradiation of radioactive ray (for example, in the case of 50.4 Gy/28 times of irradiation, oral administration for 21 days or 42 times or more as oral administration in the morning and evening). […]
# [3] = tested on: pancreatic cancer with distant metastasis; experiment: Open-label, uncontrolled study: Compound A, Nivolumab and mFFX therapy or GnP therapy as primary treatment; conditions: RECIST Guideline 1.1
# Description: This study aims to study the tolerability, safety and efficacy of a combination of Compound A as a primary treatment, Nivolumab and mFFX therapy or GP therapy in pancreatic cancer patients with distant metastases. The trial could evaluate the effect of the combination with Compound A, Nivolumab and mFFX therapy or Gnp therapy.
# Pancreatic cancer patients with distant metastases
# At the time of registration, patients who had not been treated with systemic antineoplastic agents for pancreatic cancer with distant metastases and who met all pre-determined patient selection criteria determined in view of the patient selection criteria in each trial performed so far for Compound A, Nivolumab and mFFX therapy or GnP therapy were selected.
# Compound A was orally administered once a day at a dose of 20 mg or 40 mg per administration, wherein the administration was continued until predetermined criteria for discontinuation of administration related to Compound A was met. Note that when Compound A, Nivolumab and the mFFX therapy or GnP therapy were administered on the same day, Compound A and Nivolumab were administered first, and after Compound A and Nivolumab were administered, followed by starting of the mFFX therapy or GnP therapy. […]
# [4] = tested on: advanced or recurrent non-small cell lung cancer refractory to a combination therapy including an anti-PD-1 antibody or an anti-PD-L1 antibody, and a platinum …; experiment: Open-label, uncontrolled study: Compound A, Nivolumab, Docetaxel and Ramucirumab as secondary therapy; conditions: Compound A 20 mg or 40 mg orally once a day + Nivolumab 360 mg IV at 3-week intervals + Docetaxel 60 mg/m^2 and Ramucirumab 10 mg/kg at 3-week intervals; RECIST Guideline 1.1; 8 months after the registration of the first patient
# Description: The purpose of this study is to examine the tolerability, safety, and efficacy of a combination of Compound A, Nivolumab, Docetaxel, and Ramucirumab as a secondary therapy in non-small cell lung cancer patients who had progressed or relapsed refractory to a combination therapy including an anti-PD-1 antibody or an anti-PD-L1 antibody and a platinum preparation. This trial can evaluate the effect of combination of Compound A, Nivolumab, Docetaxel, and Ramucirumab.
# Patients with stage IV or recurrent non-small cell lung cancer
# Compound A was orally administered once a day at a dose of 20 mg or 40 mg per administration, and the administration was continued until the predetermined criteria for discontinuation of administration related to Compound A were met. […]
# A principal investigator or a sub-investigator measured a tumor diameter of a target lesion according to RECIST Guideline 1.1 to determine the antitumor effect. […] Imaging diagnosis in the treatment phase was performed at 6-week intervals (±7 days) from Day 1 of the first cycle to Week 54, and thereafter at 12-week intervals (±7 days), and the tumor diameter was measured.
# The overall response and the best overall response were diagnostic imaging results evaluated based on the RECIST Guideline 1.1. […]
compound,measurement,setting,value
"CC(C)NC(=O)c1ccc2c(c1)[C@]1(CCO2)C[C@H]1C(=O)Nc1cc(C#N)ccc1CCCC(=O)O [Compound A, 4-[4-cyano-2-({(2′R,4S)-6-[(propane-2-yl)carbamoyl]-2,3-dihydrospiro[1-benzopyran-4,1′-cyclopropane]-2′-carbonyl}amino)phenyl]butanoic acid]",cases determined to be PR,[1],2 cases
same,cases determined to be pCR,[2],3 cases
same,cases judged to be PR,"[3]; Compound A 20 mg or 40 mg orally once a day + Nivolumab 480 mg IV at 4-week intervals + GnP therapy, 9 months after registration of the first patient",two
same,case determined to be PR,"[3]; Compound A 20 mg or 40 mg orally once a day + Nivolumab 480 mg IV at 4-week intervals + mFFX therapy, 9 months after the registration of the first patient",one
same,case determined to be PR,[4],one
